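In this assay, cells in 96-well plates receive the compound at five concentrations for 48 hours. Endpoints are linearly interpolated between the surrounding concentrations. At the GI50, growth is halved. TGI: total growth inhibition.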
Assays:
Assay in all cases: DTP human tumour cell line panel, 48 h
SF-268 CNS = system: SF-268 CNS
T-47D breast = system: T-47D breast
SK-MEL-28 melanoma = system: SK-MEL-28 melanoma
RXF 393 renal = system: RXF 393 renal
NCI-H23 lung = system: NCI-H23 lung
EKVX NSCLC = system: EKVX NSCLC
BT-549 breast = system: BT-549 breast
UACC-257 melanoma = system: UACC-257 melanoma
MCF7 breast = system: MCF7 breast
SK-MEL-2 melanoma = system: SK-MEL-2 melanoma
U251 CNS = system: U251 CNS
A498 renal = system: A498 renal
DU-145 prostate = system: DU-145 prostate
OVCAR-5 ovarian = system: OVCAR-5 ovarian
IGROV1 ovarian = system: IGROV1 ovarian
HOP-92 NSCLC = system: HOP-92 NSCLC
UACC-62 melanoma = system: UACC-62 melanoma
HS 578T breast = system: HS 578T breast
ACHN renal = system: ACHN renal
SNB-19 CNS = system: SNB-19 CNS
PC-3 prostate = system: PC-3 prostate
NCI-H226 lung = system: NCI-H226 lung
SW-620 colon = system: SW-620 colon
SK-MEL-5 melanoma = system: SK-MEL-5 melanoma
SN12C renal = system: SN12C renal
SK-OV-3 ovarian = system: SK-OV-3 ovarian
NCI-H460 lung = system: NCI-H460 lung
SF-295 CNS = system: SF-295 CNS
HOP-62 NSCLC = system: HOP-62 NSCLC
RPMI-8226 leukemia = system: RPMI-8226 leukemia
CAKI-1 renal = system: CAKI-1 renal
M14 melanoma = system: M14 melanoma
HCT-15 colon = system: HCT-15 colon
COLO 205 colon = system: COLO 205 colon
HCC-2998 colon = system: HCC-2998 colon
HT29 colon = system: HT29 colon
MDA-MB-435 = system: MDA-MB-435
K-562 leukemia = system: K-562 leukemia
SF-539 CNS = system: SF-539 CNS
OVCAR-4 ovarian = system: OVCAR-4 ovarian
MOLT-4 leukemia = system: MOLT-4 leukemia
TK-10 renal = system: TK-10 renal
CCRF-CEM leukemia = system: CCRF-CEM leukemia
OVCAR-3 ovarian = system: OVCAR-3 ovarian
786-0 renal = system: 786-0 renal
NCI/ADR-RES ovarian = system: NCI/ADR-RES ovarian
A549 NSCLC = system: A549 NSCLC
SNB-75 CNS = system: SNB-75 CNS
HL-60(TB) leukemia = system: HL-60(TB) leukemia
UO-31 renal = system: UO-31 renal
NCI-H522 lung = system: NCI-H522 lung
MALME-3M melanoma = system: MALME-3M melanoma
KM12 colon = system: KM12 colon
MDA-MB-231 breast = system: MDA-MB-231 breast
HCT-116 colon = system: HCT-116 colon
OVCAR-8 ovarian = system: OVCAR-8 ovarian
SR leukemia = system: SR leukemia

CC(C)=CC/C=C(/C)[C@H]1CC[C@]2(C)[C@@H]1CC[C@@H]1[C@@]3(C)CCCNC(C)(C)[C@@H]3CC[C@]12C
GI50 (SF-268 CNS): 3.82 µM | TGI (SF-268 CNS): 16.7 µM | GI50 (T-47D breast): 2.09 µM | TGI (T-47D breast): 5.03 µM | GI50 (SK-MEL-28 melanoma): 2.35 µM | TGI (SK-MEL-28 melanoma): 5.67 µM | GI50 (RXF 393 renal): 1.72 µM | TGI (RXF 393 renal): 3.31 µM | GI50 (NCI-H23 lung): 3.17 µM | GI50 (EKVX NSCLC): 10.6 µM | TGI (EKVX NSCLC): 28.4 µM | GI50 (BT-549 breast): 12.4 µM | TGI (BT-549 breast): 32.5 µM | GI50 (UACC-257 melanoma): 3.05 µM | TGI (UACC-257 melanoma): 11 µM | GI50 (MCF7 breast): 2 µM | TGI (MCF7 breast): 3.92 µM | GI50 (SK-MEL-2 melanoma): 6.06 µM | TGI (SK-MEL-2 melanoma): 22.5 µM | GI50 (U251 CNS): 1.75 µM | TGI (U251 CNS): 3.28 µM | GI50 (A498 renal): 13.8 µM | TGI (A498 renal): 29.3 µM | GI50 (DU-145 prostate): 2.08 µM | TGI (DU-145 prostate): 4.31 µM | GI50 (OVCAR-5 ovarian): 3.86 µM | TGI (OVCAR-5 ovarian): 15.1 µM | GI50 (IGROV1 ovarian): 1.87 µM | TGI (IGROV1 ovarian): 3.72 µM | GI50 (HOP-92 NSCLC): 1.5 µM | TGI (HOP-92 NSCLC): 3.58 µM | GI50 (UACC-62 melanoma): 5.5 µM | TGI (UACC-62 melanoma): 20.1 µM | GI50 (HS 578T breast): 4.96 µM | TGI (HS 578T breast): 22.3 µM | GI50 (ACHN renal): 3.37 µM | TGI (ACHN renal): 12.4 µM | GI50 (SNB-19 CNS): 3.39 µM | TGI (SNB-19 CNS): 11.6 µM | GI50 (PC-3 prostate): 1.62 µM | TGI (PC-3 prostate): 3.59 µM | GI50 (NCI-H226 lung): 3.75 µM | TGI (NCI-H226 lung): 16.8 µM | GI50 (SW-620 colon): 1.82 µM | TGI (SW-620 colon): 3.68 µM | GI50 (SK-MEL-5 melanoma): 1.91 µM | TGI (SK-MEL-5 melanoma): 4.3 µM | GI50 (SN12C renal): 2.3 µM | TGI (SN12C renal): 5.45 µM | GI50 (SK-OV-3 ovarian): 10.6 µM | TGI (SK-OV-3 ovarian): 24.8 µM | GI50 (NCI-H460 lung): 2.11 µM | TGI (NCI-H460 lung): 4.4 µM | GI50 (SF-295 CNS): 2 µM | TGI (SF-295 CNS): 3.83 µM | GI50 (HOP-62 NSCLC): 1.9 µM | TGI (HOP-62 NSCLC): 3.9 µM | GI50 (RPMI-8226 leukemia): 2.12 µM | TGI (RPMI-8226 leukemia): 4.97 µM | GI50 (CAKI-1 renal): 1.85 µM | TGI (CAKI-1 renal): 3.93 µM | GI50 (M14 melanoma): 3.46 µM | TGI (M14 melanoma): 13.8 µM | GI50 (HCT-15 colon): 1.89 µM | TGI (HCT-15 colon): 3.56 µM | GI50 (COLO 205 colon): 1.8 µM | TGI (COLO 205 colon): 3.53 µM | GI50 (HCC-2998 colon): 1.97 µM | TGI (HCC-2998 colon): 3.56 µM | GI50 (HT29 colon): 1.71 µM | TGI (HT29 colon): 3.67 µM | GI50 (MDA-MB-435): 1.83 µM | TGI (MDA-MB-435): 3.49 µM | GI50 (K-562 leukemia): 1.79 µM | TGI (K-562 leukemia): 5.3 µM | GI50 (SF-539 CNS): 2.85 µM | TGI (SF-539 CNS): 9.13 µM | GI50 (OVCAR-4 ovarian): 3.33 µM | TGI (OVCAR-4 ovarian): 11.4 µM | GI50 (MOLT-4 leukemia): 2.15 µM | TGI (MOLT-4 leukemia): 5.93 µM | GI50 (TK-10 renal): 10.6 µM | TGI (TK-10 renal): 27 µM | GI50 (CCRF-CEM leukemia): 2.84 µM | TGI (CCRF-CEM leukemia): 11.3 µM | GI50 (OVCAR-3 ovarian): 2.08 µM | TGI (OVCAR-3 ovarian): 4.28 µM | GI50 (786-0 renal): 2.38 µM | TGI (786-0 renal): 6.29 µM | GI50 (NCI/ADR-RES ovarian): 2.28 µM | TGI (NCI/ADR-RES ovarian): 5.07 µM | GI50 (A549 NSCLC): 2.15 µM | TGI (A549 NSCLC): 4.88 µM | GI50 (SNB-75 CNS): 2.56 µM | TGI (SNB-75 CNS): 10.8 µM | GI50 (HL-60(TB) leukemia): 1.8 µM | TGI (HL-60(TB) leukemia): 3.73 µM | GI50 (UO-31 renal): 10.1 µM | TGI (UO-31 renal): 23.4 µM | GI50 (NCI-H522 lung): 1.98 µM | TGI (NCI-H522 lung): 4.48 µM | GI50 (MALME-3M melanoma): 1.97 µM | TGI (MALME-3M melanoma): 4.69 µM

COc1cc2nc(-c3ccc(Cl)cc3)cc(OCCCN3CCCCC3)c2cc1OC
GI50 (KM12 colon): 3.07 µM | TGI (KM12 colon): > 100 µM | GI50 (SF-268 CNS): 3.2 µM | TGI (SF-268 CNS): > 100 µM | GI50 (T-47D breast): 1.31 µM | TGI (T-47D breast): > 100 µM | GI50 (SK-MEL-28 melanoma): 1.45 µM | TGI (SK-MEL-28 melanoma): 3.07 µM | GI50 (MDA-MB-231 breast): 0.666 µM | TGI (MDA-MB-231 breast): 4 µM | GI50 (RXF 393 renal): 1.08 µM | TGI (RXF 393 renal): 3.9 µM | GI50 (NCI-H23 lung): 2.95 µM | TGI (NCI-H23 lung): > 100 µM | GI50 (EKVX NSCLC): 1.47 µM | TGI (EKVX NSCLC): > 100 µM | GI50 (UACC-257 melanoma): 1.92 µM | TGI (UACC-257 melanoma): 4.46 µM | GI50 (MCF7 breast): 1.55 µM | TGI (MCF7 breast): 4.11 µM | GI50 (U251 CNS): 1.89 µM | TGI (U251 CNS): > 100 µM | GI50 (A498 renal): 1.4 µM | TGI (A498 renal): 3.82 µM | GI50 (DU-145 prostate): 2.54 µM | TGI (DU-145 prostate): > 100 µM | GI50 (OVCAR-5 ovarian): 1.16 µM | TGI (OVCAR-5 ovarian): > 100 µM | GI50 (IGROV1 ovarian): 0.838 µM | TGI (IGROV1 ovarian): > 100 µM | GI50 (HOP-92 NSCLC): 1.02 µM | TGI (HOP-92 NSCLC): 6.24 µM | GI50 (UACC-62 melanoma): 1.94 µM | TGI (UACC-62 melanoma): 4.42 µM | GI50 (HS 578T breast): 2.11 µM | TGI (HS 578T breast): 7.18 µM | GI50 (ACHN renal): 2.45 µM | TGI (ACHN renal): > 100 µM | GI50 (SNB-19 CNS): 2.98 µM | TGI (SNB-19 CNS): > 100 µM | GI50 (PC-3 prostate): 1.74 µM | TGI (PC-3 prostate): > 100 µM | GI50 (NCI-H226 lung): 1.12 µM | TGI (NCI-H226 lung): 3.73 µM | GI50 (SW-620 colon): 3.09 µM | TGI (SW-620 colon): > 100 µM | GI50 (SK-MEL-5 melanoma): 1.1 µM | TGI (SK-MEL-5 melanoma): 2.32 µM | GI50 (SN12C renal): 0.946 µM | TGI (SN12C renal): > 100 µM | GI50 (NCI-H460 lung): 0.842 µM | TGI (NCI-H460 lung): > 100 µM | GI50 (SF-295 CNS): 1.21 µM | TGI (SF-295 CNS): 2.81 µM | GI50 (HOP-62 NSCLC): 2.37 µM | TGI (HOP-62 NSCLC): > 100 µM | GI50 (HCT-116 colon): 0.828 µM | TGI (HCT-116 colon): > 100 µM | GI50 (OVCAR-8 ovarian): 1.77 µM | TGI (OVCAR-8 ovarian): > 100 µM | GI50 (CAKI-1 renal): 0.287 µM | TGI (CAKI-1 renal): 2.54 µM | GI50 (M14 melanoma): 0.412 µM | TGI (M14 melanoma): 1.67 µM | GI50 (SR leukemia): 0.374 µM | TGI (SR leukemia): 2.85 µM | GI50 (HCT-15 colon): 0.604 µM | TGI (HCT-15 colon): > 100 µM | GI50 (COLO 205 colon): 0.582 µM | TGI (COLO 205 colon): > 100 µM | GI50 (OVCAR-4 ovarian): 3.85 µM | TGI (OVCAR-4 ovarian): > 100 µM | GI50 (TK-10 renal): 3.73 µM | TGI (TK-10 renal): > 100 µM | GI50 (CCRF-CEM leukemia): 2.79 µM | TGI (CCRF-CEM leukemia): > 100 µM | GI50 (OVCAR-3 ovarian): 3.23 µM | TGI (OVCAR-3 ovarian): > 100 µM | GI50 (786-0 renal): 2.62 µM | TGI (786-0 renal): > 100 µM | GI50 (NCI/ADR-RES ovarian): 0.898 µM | TGI (NCI/ADR-RES ovarian): > 100 µM | GI50 (A549 NSCLC): 1.9 µM | TGI (A549 NSCLC): > 100 µM | GI50 (SNB-75 CNS): 1.98 µM | TGI (SNB-75 CNS): 6.19 µM | GI50 (NCI-H522 lung): 3.28 µM | TGI (NCI-H522 lung): > 100 µM | GI50 (MALME-3M melanoma): 1.74 µM | TGI (MALME-3M melanoma): 4.53 µM
